Several values for one entry are separate records, joined by “and”; a condition that tells them apart may be missing. Equal entries are not always repeated. Where two headings read alike, the source gives them in different places.
What was measured:
[1] = biological target: ACVR2A (Homo sapiens, UniProt P27037); assay: SelectScreen kinase assay
Method: (§1) Selectivity profiling assays were performed by the Invitrogen SelectScreen™ Services. […] The concentration of ATP was selected to be equal to the KM, unless indicated otherwise.

[2] = biological target: CAMK4 (CaMKIV) (Homo sapiens, UniProt Q16566); assay: SelectScreen kinase assay
Method: as §1

[3] = biological target: FRAP1 (mTOR) (Homo sapiens, UniProt P42345); assay: SelectScreen kinase assay
Method: as §1

[4] = biological target: MAP2K1 (MEK1) (Homo sapiens, UniProt Q02750); assay: SelectScreen kinase assay
Method: as §1

[5] = biological target: CAMK2A (CaMKII alpha) (Homo sapiens, UniProt Q9UQM7); assay: SelectScreen kinase assay
Method: as §1

[6] = biological target: PTK2 (FAK) (Homo sapiens, UniProt Q05397); assay: SelectScreen kinase assay
Method: as §1

[7] = biological target: PRKCN (PKD3) (Homo sapiens, UniProt O94806); assay: SelectScreen kinase assay
Method: as §1

[8] = biological target: LIMK1 (Homo sapiens, UniProt P53667); assay: SelectScreen kinase assay
Method: as §1

[9] = biological target: T1, MAP2K6 (MKK6) (Homo sapiens, UniProt P52564); assay: SelectScreen kinase assay
T1 sequence (P52564 1-334): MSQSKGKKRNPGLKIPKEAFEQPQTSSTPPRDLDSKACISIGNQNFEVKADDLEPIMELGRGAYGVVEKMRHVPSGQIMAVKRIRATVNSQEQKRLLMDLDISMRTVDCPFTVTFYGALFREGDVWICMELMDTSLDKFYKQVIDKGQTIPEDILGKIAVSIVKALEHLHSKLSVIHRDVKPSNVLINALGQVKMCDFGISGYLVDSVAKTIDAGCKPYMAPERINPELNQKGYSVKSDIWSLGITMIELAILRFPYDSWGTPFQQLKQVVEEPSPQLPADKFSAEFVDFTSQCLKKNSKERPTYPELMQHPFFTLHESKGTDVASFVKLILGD
Method: as §1

[10] = biological target: SIK1 (Homo sapiens, UniProt P57059); assay: SelectScreen kinase assay
Method: as §1

[11] = biological target: ~150 kDa protein (Homo sapiens, UniProt O14976); assay: Gel-based target engagement in HL-60 neutrophils; details: HL-60, read-out: Inhibition of off-target labeling
Method: Data represent means ± SEM.
The term in situ is used to designate experiments in which live cell cultures are treated with inhibitor, whereas the term in vitro refers to experiments in which the inhibitor is incubated with cell lysates. Compounds were diluted in growth medium from a 1000x concentrated stock solution in DMSO. […] After 48 h, cells were treated with compound for 1 h. Cells were collected by suspension in PBS and centrifuged (1000g, 5 min, rt). Pellets were flash-frozen in liquid nitrogen and stored at −80 °C until use. For in situ treatment post-differentiation, HL-60 cells were differentiated as described above and incubated with compound for 1 h unless specified otherwise. Cells were collected by suspension for non-adherent cells and trypsinization for adherent cells. After collection, cells were centrifuged (200g, 5 min, rt) and washed in equal volume of PBS (1000g, 5 min, rt). Cell pellets were flash-frozen in liquid nitrogen and stored at −80 °C until use.

[12] = biological target: CDC42 BPB (MRCKB) (Homo sapiens, UniProt Q9Y5S2); assay: SelectScreen kinase assay; details: 1 h, 1 μM WEL028, 1 h preincubation
Method: as §1

[13] = biological target: T2, ADRBK1 (GRK2) (Homo sapiens, UniProt P25098); assay: SelectScreen kinase assay; details: for Inhibition at 1 µM (%): ADRBK1 (GRK2), ZLYTE, ATP Km app
T2 sequence (P25098 1-689): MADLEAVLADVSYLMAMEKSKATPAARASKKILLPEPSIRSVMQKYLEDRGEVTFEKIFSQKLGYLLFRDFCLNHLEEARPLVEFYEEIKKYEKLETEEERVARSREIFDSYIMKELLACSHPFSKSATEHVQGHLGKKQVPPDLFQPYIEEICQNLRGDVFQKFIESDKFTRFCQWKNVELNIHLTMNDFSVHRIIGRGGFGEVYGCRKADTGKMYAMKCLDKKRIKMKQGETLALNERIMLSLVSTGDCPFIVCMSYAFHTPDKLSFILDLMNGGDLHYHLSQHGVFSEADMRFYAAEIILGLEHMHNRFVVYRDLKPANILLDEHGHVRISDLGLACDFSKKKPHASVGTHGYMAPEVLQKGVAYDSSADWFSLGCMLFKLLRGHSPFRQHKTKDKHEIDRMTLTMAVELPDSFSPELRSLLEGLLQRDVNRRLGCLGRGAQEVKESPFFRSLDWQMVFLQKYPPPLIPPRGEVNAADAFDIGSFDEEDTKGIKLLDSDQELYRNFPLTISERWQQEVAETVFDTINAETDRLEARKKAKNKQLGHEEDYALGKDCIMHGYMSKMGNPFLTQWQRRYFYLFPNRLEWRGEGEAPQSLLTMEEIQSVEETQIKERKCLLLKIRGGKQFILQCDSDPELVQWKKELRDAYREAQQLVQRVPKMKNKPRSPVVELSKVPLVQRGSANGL
Method: as §1

[14] = biological target: FGFR1 (Homo sapiens, UniProt P11362); assay: SelectScreen kinase assay
Method: as §1

[15] = biological target: RPS6KB2 (p70S6Kb) (Homo sapiens, UniProt Q9UBS0); assay: SelectScreen kinase assay
Method: as §1

[16] = biological target: CDK17/cyclin Y (Homo sapiens, UniProt Q00537); assay: SelectScreen kinase assay
Method: as §1

[17] = 1 h, 1 μM WEL028, 1 h preincubation
[18] = 1 h, log[inhibitor] (M) -5.00, ZLYTE, ATP 100
[19] = 1 h, log[inhibitor] (M) -5.48, ZLYTE, ATP 100
[20] = 1 h, log[inhibitor] (M) -5.95, ZLYTE, ATP 100
[21] = 1 h, log[inhibitor] (M) -6.43, ZLYTE, ATP 100
[22] = 1 h, log[inhibitor] (M) -6.91, ZLYTE, ATP 100
[23] = 1 h, log[inhibitor] (M) -7.86, ZLYTE, ATP 100
[24] = 1 h, log[inhibitor] (M) -8.82, ZLYTE, ATP 100
[25] = IC50 on that kinase divided by IC50 on FES^S700C
[26] = 1 µM, ZLYTE, ATP Km app, listed as WEL028, 1 µM

Chain of ACVR2A (P27037 20-513): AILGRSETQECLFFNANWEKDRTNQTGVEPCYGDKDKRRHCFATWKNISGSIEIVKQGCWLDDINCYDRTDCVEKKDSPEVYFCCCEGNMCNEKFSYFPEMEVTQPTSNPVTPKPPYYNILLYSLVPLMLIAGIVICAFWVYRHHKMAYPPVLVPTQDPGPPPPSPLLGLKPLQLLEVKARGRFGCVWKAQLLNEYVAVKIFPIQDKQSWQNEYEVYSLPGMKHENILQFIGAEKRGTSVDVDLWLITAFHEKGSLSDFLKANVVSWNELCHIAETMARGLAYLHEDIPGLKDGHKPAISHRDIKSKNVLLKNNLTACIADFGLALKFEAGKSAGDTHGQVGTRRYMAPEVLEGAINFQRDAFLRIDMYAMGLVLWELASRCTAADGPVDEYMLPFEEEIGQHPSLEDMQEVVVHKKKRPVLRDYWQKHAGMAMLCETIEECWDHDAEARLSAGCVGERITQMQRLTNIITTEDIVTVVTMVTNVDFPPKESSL
Chain of CAMK2A (CaMKII alpha) (Q9UQM7 whole entry): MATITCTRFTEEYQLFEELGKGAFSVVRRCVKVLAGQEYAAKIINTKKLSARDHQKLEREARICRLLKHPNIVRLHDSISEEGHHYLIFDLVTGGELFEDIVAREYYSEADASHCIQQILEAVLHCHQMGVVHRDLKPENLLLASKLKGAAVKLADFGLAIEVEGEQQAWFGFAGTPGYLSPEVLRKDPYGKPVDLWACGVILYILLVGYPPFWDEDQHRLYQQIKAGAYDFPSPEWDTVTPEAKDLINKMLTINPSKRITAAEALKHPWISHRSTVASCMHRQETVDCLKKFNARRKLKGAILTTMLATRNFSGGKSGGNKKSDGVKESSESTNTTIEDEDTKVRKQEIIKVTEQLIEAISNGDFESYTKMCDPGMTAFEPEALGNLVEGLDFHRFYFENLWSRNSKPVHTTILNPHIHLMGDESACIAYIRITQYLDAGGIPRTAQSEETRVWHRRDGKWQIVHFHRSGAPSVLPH
Chain of LIMK1 (P53667 whole entry): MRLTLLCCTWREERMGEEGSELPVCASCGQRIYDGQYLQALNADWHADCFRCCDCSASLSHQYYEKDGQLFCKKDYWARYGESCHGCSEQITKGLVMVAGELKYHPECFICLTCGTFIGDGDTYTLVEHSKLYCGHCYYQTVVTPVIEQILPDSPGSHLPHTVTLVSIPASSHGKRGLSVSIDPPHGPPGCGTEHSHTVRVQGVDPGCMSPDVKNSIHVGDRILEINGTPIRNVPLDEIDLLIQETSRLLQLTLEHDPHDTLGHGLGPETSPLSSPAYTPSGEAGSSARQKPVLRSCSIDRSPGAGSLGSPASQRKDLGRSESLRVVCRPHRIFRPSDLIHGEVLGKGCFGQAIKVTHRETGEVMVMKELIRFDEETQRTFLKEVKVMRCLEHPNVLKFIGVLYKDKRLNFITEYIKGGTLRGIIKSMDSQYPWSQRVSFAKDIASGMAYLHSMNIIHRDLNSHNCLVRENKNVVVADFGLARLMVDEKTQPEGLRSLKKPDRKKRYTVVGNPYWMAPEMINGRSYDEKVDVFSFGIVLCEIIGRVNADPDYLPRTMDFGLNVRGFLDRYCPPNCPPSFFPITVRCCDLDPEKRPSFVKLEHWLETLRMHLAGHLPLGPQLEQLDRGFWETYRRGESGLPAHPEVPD
Chain of FGFR1 (P11362 22-822): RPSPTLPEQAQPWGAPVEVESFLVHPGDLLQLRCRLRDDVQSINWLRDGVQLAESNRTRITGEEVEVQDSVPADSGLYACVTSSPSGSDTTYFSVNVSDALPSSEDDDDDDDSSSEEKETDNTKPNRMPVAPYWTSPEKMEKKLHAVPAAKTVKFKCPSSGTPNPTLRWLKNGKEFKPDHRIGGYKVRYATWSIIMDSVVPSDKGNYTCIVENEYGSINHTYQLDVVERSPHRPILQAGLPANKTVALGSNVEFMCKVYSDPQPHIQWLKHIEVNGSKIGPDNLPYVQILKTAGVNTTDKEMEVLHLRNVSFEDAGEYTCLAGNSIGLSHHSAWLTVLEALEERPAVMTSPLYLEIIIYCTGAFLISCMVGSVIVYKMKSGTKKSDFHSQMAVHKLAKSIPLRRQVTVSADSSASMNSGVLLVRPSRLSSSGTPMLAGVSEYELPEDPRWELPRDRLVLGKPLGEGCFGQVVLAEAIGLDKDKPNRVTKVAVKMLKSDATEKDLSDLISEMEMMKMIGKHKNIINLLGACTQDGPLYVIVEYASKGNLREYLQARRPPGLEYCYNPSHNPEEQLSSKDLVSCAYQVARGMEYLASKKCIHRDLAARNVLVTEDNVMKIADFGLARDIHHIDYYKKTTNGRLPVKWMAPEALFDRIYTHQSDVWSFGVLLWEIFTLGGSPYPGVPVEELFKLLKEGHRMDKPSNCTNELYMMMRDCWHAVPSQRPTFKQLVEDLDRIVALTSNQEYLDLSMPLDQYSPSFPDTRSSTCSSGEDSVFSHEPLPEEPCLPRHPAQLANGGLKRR
Chain of PTK2 (FAK) (Q05397 whole entry, species assumed): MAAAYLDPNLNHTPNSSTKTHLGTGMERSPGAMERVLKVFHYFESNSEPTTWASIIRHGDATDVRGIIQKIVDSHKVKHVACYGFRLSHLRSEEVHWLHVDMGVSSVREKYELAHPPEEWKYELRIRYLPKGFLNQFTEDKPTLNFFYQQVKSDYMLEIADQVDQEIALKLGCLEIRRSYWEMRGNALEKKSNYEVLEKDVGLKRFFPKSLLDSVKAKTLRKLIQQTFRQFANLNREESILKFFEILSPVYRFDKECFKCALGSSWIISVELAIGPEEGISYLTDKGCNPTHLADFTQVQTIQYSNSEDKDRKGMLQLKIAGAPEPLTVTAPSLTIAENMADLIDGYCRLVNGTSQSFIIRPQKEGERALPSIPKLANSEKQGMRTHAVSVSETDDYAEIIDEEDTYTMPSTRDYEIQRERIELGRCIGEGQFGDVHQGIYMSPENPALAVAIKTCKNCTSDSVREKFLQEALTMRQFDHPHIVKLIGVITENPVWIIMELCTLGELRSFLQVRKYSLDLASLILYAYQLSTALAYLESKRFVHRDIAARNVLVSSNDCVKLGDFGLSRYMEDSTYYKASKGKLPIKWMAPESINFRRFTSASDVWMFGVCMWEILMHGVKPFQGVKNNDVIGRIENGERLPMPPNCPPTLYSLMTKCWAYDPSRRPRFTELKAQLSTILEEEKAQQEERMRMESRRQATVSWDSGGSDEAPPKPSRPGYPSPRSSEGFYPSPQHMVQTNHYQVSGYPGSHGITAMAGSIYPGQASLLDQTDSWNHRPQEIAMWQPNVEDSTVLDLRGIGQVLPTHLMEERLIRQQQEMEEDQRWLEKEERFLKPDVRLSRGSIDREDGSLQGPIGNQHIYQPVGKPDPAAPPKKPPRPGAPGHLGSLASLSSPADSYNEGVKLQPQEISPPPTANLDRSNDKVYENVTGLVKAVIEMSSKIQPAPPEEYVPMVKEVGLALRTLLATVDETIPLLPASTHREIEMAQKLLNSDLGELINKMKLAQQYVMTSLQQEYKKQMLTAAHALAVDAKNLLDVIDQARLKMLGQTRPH
Chain of SIK1 (P57059 whole entry): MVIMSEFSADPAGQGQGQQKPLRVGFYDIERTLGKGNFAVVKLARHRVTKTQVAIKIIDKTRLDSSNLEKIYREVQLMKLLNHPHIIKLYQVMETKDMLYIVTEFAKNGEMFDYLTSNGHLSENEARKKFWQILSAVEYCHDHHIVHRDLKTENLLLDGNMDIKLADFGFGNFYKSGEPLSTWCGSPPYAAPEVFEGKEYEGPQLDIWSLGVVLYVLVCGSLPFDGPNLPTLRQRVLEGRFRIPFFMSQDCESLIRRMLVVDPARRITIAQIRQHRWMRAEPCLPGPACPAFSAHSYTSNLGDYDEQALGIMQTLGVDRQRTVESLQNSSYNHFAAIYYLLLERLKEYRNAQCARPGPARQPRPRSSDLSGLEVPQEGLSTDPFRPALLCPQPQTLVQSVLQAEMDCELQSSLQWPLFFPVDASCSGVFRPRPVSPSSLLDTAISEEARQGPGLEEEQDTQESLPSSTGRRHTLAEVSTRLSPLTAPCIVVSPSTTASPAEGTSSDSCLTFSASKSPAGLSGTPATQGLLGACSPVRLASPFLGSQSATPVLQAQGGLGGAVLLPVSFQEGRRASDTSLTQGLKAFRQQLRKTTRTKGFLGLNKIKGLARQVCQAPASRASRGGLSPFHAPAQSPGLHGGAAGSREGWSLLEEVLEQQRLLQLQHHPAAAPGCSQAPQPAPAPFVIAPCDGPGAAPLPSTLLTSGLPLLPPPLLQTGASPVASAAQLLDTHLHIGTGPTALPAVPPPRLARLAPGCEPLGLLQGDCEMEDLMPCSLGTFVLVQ
Chain of RPS6KB2 (p70S6Kb) (Q9UBS0 whole entry): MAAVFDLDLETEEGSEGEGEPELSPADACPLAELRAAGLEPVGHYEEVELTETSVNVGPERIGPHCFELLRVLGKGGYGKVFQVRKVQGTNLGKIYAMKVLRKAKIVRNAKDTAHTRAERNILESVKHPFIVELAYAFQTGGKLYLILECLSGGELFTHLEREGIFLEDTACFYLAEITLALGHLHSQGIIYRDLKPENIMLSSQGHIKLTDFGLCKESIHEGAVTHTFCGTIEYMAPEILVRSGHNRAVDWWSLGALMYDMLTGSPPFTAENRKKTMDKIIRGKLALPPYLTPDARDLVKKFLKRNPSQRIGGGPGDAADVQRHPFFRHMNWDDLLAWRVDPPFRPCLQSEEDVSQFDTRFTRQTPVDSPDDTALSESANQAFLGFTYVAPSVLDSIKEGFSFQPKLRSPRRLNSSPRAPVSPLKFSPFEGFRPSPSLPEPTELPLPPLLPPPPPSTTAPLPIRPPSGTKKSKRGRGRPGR

With C#CCOc1ccc(Nc2ncc(Cl)c(Nc3ccccc3NC(=O)C=C)n2)c(OC)c1 [Compound 6] the inhibition at 1 µM [1, 17] was 5%, the “Inhibition at 1 µM (%)” value ([1]; ACVR2A, 1 µM, LanthaScreen Binding, listed as WEL028, 1 µM) was 6% and the inhibition at 1 µM ([1]; read-out: Inhibition at 1 µM (%), ACVR2A, 1 µM, LanthaScreen Binding) was 4%. For the same compound, the inhibition at 1 µM [2, 17] was -5%, the “Inhibition at 1 µM (%)” value ([2]; CAMK4 (CaMKIV), 1 µM, ZLYTE, ATP Km app) was -15% and the inhibition at 1 µM [3, 17] was 11%. The “Inhibition at 1 µM (%)” value ([3]; FRAP1 (mTOR), 1 µM, ZLYTE, ATP Km app) was 19%, the IC50 [4] was 0.251 µM and the inhibition at 10 µM [4, 18] was 110%. It also gave an inhibition at 3.311 µM [4, 19] of 106%, an inhibition at 1.122 µM [4, 20] of 106% and an inhibition at 0.3715 µM [4, 21] of 78%. It also gave an inhibition at 0.123 µM [4, 22] of 44%, an inhibition at 0.04074 µM ([4]; 1 h, log[inhibitor] (M) -7.39, ZLYTE, ATP 100) of 29% and an inhibition at 0.0138 µM [4, 23] of 40%. For the same compound, the inhibition at 0.001514 µM [4, 24] was 19%, the inhibition at 0.0004898 µM ([4]; 1 h, log[inhibitor] (M) -9.31, ZLYTE, ATP 100) was 18% and the inhibition at 0.004571 µM ([4]; 1 h, log[inhibitor] (M) -[…], ZLYTE, ATP 100) was 27%. For the same compound, the Apparent fold selectivity [4, 25] was 60 fold, the “Inhibition at 1 µM (%)” value ([4]; MAP2K1 (MEK1), 1 µM, ZLYTE, ATP 100, listed as WEL028, 1 µM) was 108% and the inhibition at 1 µM ([4]; read-out: Inhibition at 1 µM (%), MAP2K1 (MEK1), 1 µM, ZLYTE, ATP 100) was 113%. For the same compound, the inhibition at 1 µM [5, 17] was -6%, the “Inhibition at 1 µM (%)” value ([5]; CAMK2A (CaMKII alpha), 1 µM, ZLYTE, ATP Km app, listed as WEL028, 1 µM) was -7% and -5% and the IC50 [6] was 0.398 µM. The “Inhibition at 1 µM (%)” value [6, 26] was 79%, the inhibition at 10 µM ([6]; 1 h, log[inhibitor] (M) -5.00, ZLYTE, ATP Km app) was 90% and the inhibition at 3.31 µM ([6]; 1 h, log[inhibitor] (M) -5.48, ZLYTE, ATP Km app) was 88%. For the same compound, the inhibition at 1.12 µM ([6]; 1 h, log[inhibitor] (M) -5.95, ZLYTE, ATP Km app) was 78%, the inhibition at 0.372 µM ([6]; 1 h, log[inhibitor] (M) -6.43, ZLYTE, ATP Km app) was 46% and the inhibition at 0.123 µM ([6]; 1 h, log[inhibitor] (M) -6.91, ZLYTE, ATP Km app) was 26%. It also gave an inhibition at 0.0138 µM ([6]; 1 h, log[inhibitor] (M) -7.86, ZLYTE, ATP Km app) of 4%, an inhibition at 0.00151 µM ([6]; 1 h, log[inhibitor] (M) -8.82, ZLYTE, ATP Km app) of 4% and an Apparent fold selectivity [6, 25] of 89 fold. It also gave an inhibition at 1 µM ([6]; read-out: Inhibition at 1 µM (%), 1 µM, ZLYTE, ATP Km app) of 77%, an inhibition at 1 µM [7, 17] of 31% and an inhibition at 1 µM ([7]; read-out: Inhibition at 1 µM (%), PRKCN (PKD3), 1 µM, ZLYTE, ATP Km app) of 32%. The inhibition at 1 µM [8, 17] was 14%, the “Inhibition at 1 µM (%)” value ([8]; LIMK1, 1 µM, LanthaScreen Binding, listed as WEL028, 1 µM) was 12% and the inhibition at 1 µM ([8]; read-out: Inhibition at 1 µM (%), LIMK1, 1 µM, LanthaScreen Binding) was 16%. For the same compound, the IC50 [9] was 0.316 µM, the inhibition at 1 µM [9, 17] was 73% and the inhibition at 10 µM [9, 18] was 92%. The inhibition at 3.311 µM [9, 19] was 96%, the inhibition at 1.122 µM [9, 20] was 80% and the inhibition at 0.3715 µM [9, 21] was 51%. The inhibition at 0.123 µM [9, 22] was 29%, the inhibition at 0.0138 µM [9, 23] was 11% and the inhibition at 0.001514 µM [9, 24] was 4%. For the same compound, the Apparent fold selectivity [9, 25] was 68 fold, the inhibition at 1 µM ([9]; read-out: Inhibition at 1 µM (%), MAP2K6 (MKK6), 1 µM, ZLYTE, ATP 100) was 73% and the “Inhibition (%)” value ([10]; 1 μM WEL028, 1 h preincubation) was 5%. For the same compound, the “Inhibition at 1 µM (%)” value ([10]; 1 µM, LanthaScreen Binding, listed as WEL028, 1 µM) was 5%, the inhibition at 1 µM ([10]; read-out: Inhibition at 1 µM (%), 1 µM, LanthaScreen Binding) was 4% and the inhibition at 0.1 µM [11] was about 80%. For the same compound, the inhibition at 1 µM [12] was 6%, the inhibition at 1 µM [13, 17] was 4% and the “Inhibition at 1 µM (%)” value [13] was 2%. For the same compound, the “Inhibition at 1 µM (%)” value ([13]; listed as WEL028, 1 µM) was 6%, the inhibition at 1 µM [14, 17] was 3% and the “Inhibition at 1 µM (%)” value ([14]; FGFR1, 1 µM, ZLYTE, ATP Km app, listed as WEL028, 1 µM) was 5% and 1%. For the same compound, the “Inhibition at 1 µM (%)” value [15, 26] was 1% and 4%, the inhibition at 1 µM [15, 17] was 3% and the inhibition at 1 µM [16, 17] was 4%. For the same compound, the inhibition at 1 µM ([16]; read-out: Inhibition at 1 µM (%), CDK17/cyclin Y, 1 µM, ZLYTE, ATP Km app) was 5%.
